Laboratory results as given in US20220226470A1, “ANTIBODIES AND METHODS FOR TREATMENT OF INFLUENZA A INFECTION” (HUMABS BIOMED SA, priority 2019, published 2022).

Assays:
Experiment in all cases: microbe, parasite or virus in culture
Type in all cases: cell-based
H1N1 virus = conditions: Influenza A virus, H1N1, MDCK
H3N2 virus = conditions: Influenza A virus, H3N2, MDCK
H3N2 and H1N1 strains = conditions: Influenza A virus, MDCK, read-out: relative calculated IC50

SMILES | IC50 (H1N1 virus) | IC50 (H3N2 virus) | IC50 (H3N2 and H1N1 strains)
CCOC(=O)C1=C[C@@H](OC(CC)CC)[C@H](NC(C)=O)[C@@H](N)C1 [oseltamivir, reference compound] | 9.1 nM | 7 nM | –
CC(=O)N[C@H]1[C@H]([C@H](O)[C@H](O)CO)OC(C(=O)O)=C[C@@H]1N=C(N)N [zanamivir, reference compound] | – | – | 10.7 to 13.7 nM
